In data set [1] the target is T1, tau isoform 2N4R (Homo sapiens, UniProt P10636).
T1 construct: made in house; host or cells: E. coli BL21(DE3)
The data set can be described thus: PICUP, tau isoform 2N4R oligomerization. The format is biochemical. As for the experimental part: The bacterial expression plasmid consisting of the vector pRK172 carrying a cDNA encoding the human Tau 2N4R isoform was obtained from Dr. David Eliezer (Weill Cornell Medicine, New York, NJ). For protein expression, E. coli BL21(DE3) cells were transformed with the plasmid and grown in LB media supplemented with ampicillin (100 μg/mL). Protein over-expression was induced by the addition of 1 mM IPTG for 4 hours at 37° C., and cells were pelleted by centrifugation at 6,000 g for 15 minutes at 4° C. The cells were resuspended in lysis buffer (20 mM MES, 400 mM NaCl, 0.2 mM MgCl2, 1 mM EGTA, protease inhibitor cocktail (P8340, Sigma Aldrich), 0.25 mg/mL lysozyme, and 1 μg/mL DNase 1, pH 6.8) and lysed by a French press cell disruptor at 4° C., after which the lysate was boiled for 20 minutes. Denatured proteins were pelleted by centrifugation at 30,000 g for 30 minutes at 4° C., and the supernatant was dialyzed overnight against cation exchange buffer (20 mM MES, 50 mM NaCl, 1 mM MgCl2, 1 mM EGTA, 2 mM DTT, 0.1 mM PMSF, pH 6.8). The dialysate was loaded onto a HiPrep SP HP column, and proteins were eluted with a linear gradient ranging from 50 mM to 1 M NaCl. Fractions containing tau isoform 2N4R were pooled, and the resulting protein solution was dialyzed against PBS (pH 7.4) and stored at −80° C.
(§1) Photo-induced Cross-linking of Unmodified Proteins (PICUP) Assay. To induce oligomerization by cross-linking, α-syn (from Rpeptide, LLC) and tau isoform 2N4R were diluted in 10 mM phosphate buffer (pH 7.4) to reach a final concentration of 10 μM. Different compounds were added to the protein solution at a final concentration of 50 μM, resulting in a molar ratio of 1:5. To confirm the gradual effect of the compounds on the inhibition of α-syn oligomerization, the compounds were tested at final concentrations of 3.125, 6.25, 12.5, 25, and 50 μM. The controls consisted of samples without light exposition, without Ru(bpy) or ammonium persulfate, and without compound (i.e., 0.125% DMSO). The cross-linking reaction was initiated by the addition of 2 μL of Ru(bpy) (300 μM final concentration) and 2 μL ammonium persulfate (6 mM final concentration). Samples were irradiated immediately. Light exposure was of a one-second duration for α-syn and a three-second duration for tau isoform 2N4R, with a 53 W (120 V) incandescent lamp installed in a homemade dark-box. Each tube contained a final volume of 20 μL. After irradiation, 8.3 μL of Laemmli loading buffer containing 15% β-mercaptoethanol were immediately added to the solution, followed by incubation at 95° C. for 10 minutes. The cross-linked samples were separated on a 16% SDS-PAGE gel and visualized by Coomassie blue staining.

Data set [2] concerns M17D neuroblastoma cells that express inclusion-prone αS-3K::YFP. Briefly: α-Syn inclusion-forming neuroblastoma cell experiment. The format is cell-based. The conditions noted are these: t=96 hrs. As for the experimental part: α-Syn (or αS) inclusion-forming neuroblastoma cell experiment. Dox-inducible neuroblastoma cells M17D-TR/αS-3K::YFP have been used previously. 96-well plates were used with a cellular density of 30,000 cells per well. Compounds were added […], and αS-3K::YFP transgene expression was induced […]. Induction was done by adding 1 μg per mL (final concentration) dox to culture media. Cells were incubated in the Incucyte Zoom 2000 platform (Essen Biosciences), and images (green, bright field) were taken continuously. Endpoint analysis of inclusion formation or growth was performed 48 hours after induction (96 hours after plating). The Incucyte processing definition ‘Inclusions’ was created as follows: Parameters, Fixed Threshold, Threshold (GCU) 50; Edge Split On, Edge Sensitivity 100; Cleanup, Hole Fill (μm^2): 10, Adjust Size (pixels): 0; Filters, Area (μm^2): max 50, Mean Intensity: min 60, Integrated Intensity: min 2000. Cell confluence was measured by the processing definition ‘Cells’: Parameters, Segmentation Adjustment 0.7; Cleanup, all parameters set to 0; Filters, Area (μm^2): min 345.00. As described previously for the evaluation of protein expression by SDS-PAGE and Western Blotting in the LiCor system, αS-specific monoclonal antibody 4B12 (Thermofisher, Waltham, MA; 1:1000) and a polyclonal antibody to GAPDH (Sigma-Aldrich, St. Louis, MO, G9545; 1:5000) were used.

In data set [3] the target is T2, α-syn (Homo sapiens, UniProt P37840).
T2 construct: purchased rPeptide
The data set can be described thus: Photo-induced cross-linking of unmodified proteins (PICUP), α-syn oligomerization. The conditions noted are these: for α-syn oligomer formation (PICUP): compound 50 μM, molar ratio 1:5 (protein:compound). The format is biochemical. As for the experimental part: as §1

In data set [4] the target is T1, tau isoform 2N4R. Briefly: TEM of tau isoform 2N4R fibrils. The format is biochemical. The following applies: compound 100 μM, tau 10 μM, molar ratio 1:10. On the procedure: Transmission electron microscopy (TEM). After performing analysis with ThT fluorescence assay, TEM was utilized to detect fibril formation. A volume of 10 μL was applied to a 400-mesh Formvar-carbon-coated copper grid (Electron Microscopy Sciences, Hatfield, PA). The grids were incubated for 1 minute and washed three times with distilled water. They were carefully air-dried and incubated for 1 minute in a fresh solution of 1% uranyl acetate. Samples were air-dried and observed using a transmission microscope. Visualization of the grids was performed with TEM (JEOL 1400 Flash, Japan). Acquisition of pictures was performed with settings of accelerating voltage of 100 kV and magnification of 25 k and/or 40 k.

T1 sequence (P10636 1-441 isoform P10636-8): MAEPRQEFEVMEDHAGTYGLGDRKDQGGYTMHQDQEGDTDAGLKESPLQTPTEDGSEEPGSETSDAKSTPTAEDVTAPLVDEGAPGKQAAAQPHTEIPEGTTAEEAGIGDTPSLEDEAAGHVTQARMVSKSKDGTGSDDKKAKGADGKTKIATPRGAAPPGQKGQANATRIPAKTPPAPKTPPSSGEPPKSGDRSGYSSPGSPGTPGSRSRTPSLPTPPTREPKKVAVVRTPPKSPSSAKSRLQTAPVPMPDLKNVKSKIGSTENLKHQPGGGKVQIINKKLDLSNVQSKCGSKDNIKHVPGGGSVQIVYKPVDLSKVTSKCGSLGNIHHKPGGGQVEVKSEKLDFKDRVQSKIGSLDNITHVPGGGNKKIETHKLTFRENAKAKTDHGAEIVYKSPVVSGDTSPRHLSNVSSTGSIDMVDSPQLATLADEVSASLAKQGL

Turning to `Nc1nsc2ccc([N+](=O)[O-])cc12` [A, 5-nitro-1,2-benzothiazol-3-amine], the “tau isoform 2N4R oligomer formation (PICUP), dose dependence” value in data set [1] (3.125-50 μM) is listed as “reduced the oligomer formation in a dose-dependent manner”. Besides, in data set [1] (compound 50 μM), the “tau isoform 2N4R oligomer formation (PICUP)” value was “reduced α-syn and tau isoform 2N4R oligomer formation”. For the same compound, the cell confluence entry in data set [2] (different concentrations) is given as “without any effect on the cell confluence”. Also, the “number of αS-3K::YFP inclusions” value in data set [2] (different concentrations, vs 0.1% DMSO) is “reduced the number of inclusions in a dose-dependent manner”. In addition, the “concentration from which the number of inclusions was reduced” value in data set [2] is 10 µM. For the same compound, the “α-syn oligomer formation (PICUP), dose dependence” value in data set [3] (3.125-50 μM) is “reduced the oligomer formation in a dose-dependent manner”. Besides, the “α-syn oligomer formation (PICUP)” value in data set [3] (listed as 5-nitro-1,2-benzothiazol-3-amine) is “reduced α-syn and tau isoform 2N4R oligomer formation”; in data set [3] (listed as nitro-1,2-benzothiazol-3-amine), “reduced the oligomer formation”. Further, the “tau isoform 2N4R fibrils by TEM” value in data set [4] was “clear effect in reducing α-syn and tau fibrillization”.
